Where a SMILES comes first, the peptide text is derived from it. The star is where a group is joined. PNA(A) = NCCN(CC(=O)*)C(=O)Cn1cnc2c(N)ncnc21
Assays:
[1] = system: CCD-16Lu normal immortalized human lung fibroblasts; test: Proliferation of normal lung cells (protocol of Example 14); type: cell-based
[2] = system: peripheral blood lymphocytes; test: Peripheral blood lymphocyte survival and blastogenic response to mitogens; type: cell-based; conditions: primary lymphocytes of pigs, mice and human
[3] = Acute toxicity studies in mice (IV, topical, oral); type: in vivo, mouse
Protocol: Acute toxicity studies were performed on mice using three different delivery routes: IV (tail), topical and oral. […] The LD50 obtained from the IV study was determined to be 750 μg-1 mg per mouse. The “no observed adverse effect level” was determined to be 250 μg per mouse, approximately twice the concentration of TIM 10 provided to mice in the studies discussed above.

MDA MB231 cells = test: Matrigel invasion/migration with EGF as chemoattractant; type: cell-based, human; conditions: 24 h; 10 ng/ml EGF
Protocol: Experiments were conducted to investigate the effect of compound TIM 10 (5 mM dose) on migration of human breast cancer cells (MDA MB231) with and without EGF (10 ng/ml) as a chemo-attractant. A standard a two-chamber culture system (BD BIOcoat™ Matrigel™ Invasion Chamber; BD Biosciences Clont, Discovery labware, Immunocytometry system Pharmingen) was employed for these experiments. Control chambers used in the following experiment are similar to the invasion chambers except that no Matrigel matrix is present, thus allowing cells to freely reach the lower membrane surface through the membrane pores.
The ability of compound TIM 10 to inhibit invasion/migration of MDA MB231 cells in the presence of the chemoattractant EGF was measured as described above using EGF 10 ng/mL as the chemoattractant.

PKC alpha = PKC alpha (Homo sapiens, UniProt P17252); test: PKC isoform protein levels in cancer cell lines after TIM 10 (Western blot); type: cell-based; design: endogenous in cells; host or cells: MDA MB-231, T24, SKOV-3, MCF-7, Capan-2, NCI-H661, Calu-6, Calu-3; conditions: 5 mM by pinocytic influx, 24 hrs
Protocol: The effect of compound TIM 10 on the levels of protein for various PKC isoforms was assessed as generally described below in the following human cancer cell lines: MDA MB-231 breast adenocarcinoma cells (ATCC HTB-26); T24 bladder transitional cell carcinoma (ATCC HTB-4); SKOV-3 ovary adenocarcinoma (ATCC HTB-77); MCF-7 breast adenocarcinoma (ATCC HTB-22); Capan-2 pancreatic adenocarcinoma (ATCC HTB-80); NCI-H661 NSCL large cells (ATCC HTB-183); Calu-6 probable lung anaplastic carcinoma (ATCC HTB-56) and Calu-3 lung adenocarcinoma (ATCC HTB-55).
Cells representative of the different cancer types were cultured according to ATCC instructions. At subconfluence, the cells were trypsinized and compound 10 (5 mM) was incorporated into the cells by pinocytic influx endocytosis according to the manufacturer's instructions (Molecular Probe). Matching controls were treated accordingly except that vehicle was incorporated instead of compound 10. Following pinocytic influx, the cells were seeded and allowed to grow in fresh medium for 24 hrs. The cell cultures were further extracted using RIPA lysis buffer according to standard protocol. The protein content of each lysate was measured using Bradford protein estimation procedure (BioRad) and normalized. Following addition of sample buffer, the proteins from 15 μl of each extract were separated by electrophoresis, electro-transferred to nitrocellulose membranes and the various isoforms of PKC were detected using appropriate antibodies (Santa Cruz Biotechnology, Inc., CA). The relative intensity of bands of the expected molecular weight was estimated after scanning and the % decrease in the band intensity relative to control was calculated.

PKC-α = biological target: T1, PKC-α (Rattus norvegicus, UniProt P05696); test: Competition of PRE with PKC-α antibody binding on Western blot, Protocol A, C6Cx43 lysate; conditions: C6Cx43 cells
T1 construct: C6Cx43 cells (rat glioma transfected cells overexpressing connexin 43); endogenous in cells; host or cells: C6Cx43 rat glioma cells (transfected with connexin 43, not with PKC)
Protocol: The ability of the PRE 1, 2 and 3 (see Table 3 above) to interfere with the binding of a PKC-α-specific polyclonal antibody to PKC-α was determined using the following protocol.
Cell lysates from either IMR-32 (human neuroblastoma) cells or C6Cx43 cells (rat glioma transfected cells overexpressing connexin 43) were obtained using standard protocols and the proteins of the lysate were separated by SDS PAGE electrophoresis and electrotransferred onto a nitrocellulose membrane. The membrane was incubated for 30 minutes in blocking buffer (TBST) containing the test peptide at either 5× or 20× the concentrations of the primary antibody. A primary polyclonal antibody specific for PKC-α (Santa Cruz Biotechnology, Inc., CA) was then added (15 μg/ml) and the membrane incubated for a further 45 minutes. Finally, the primary antibody was detected with a secondary antibody conjugated to alkaline phosphatase using standard procedures. The intensity of the band corresponding to PKC-α was assessed by scanning and densitometry using the Gel-Pro software (Media Cybernetics) to obtain relative band intensities (average of 3 replicas). Control assays were conducted as described above except that blocking buffer without peptide was used.
The results are expressed as relative band intensity and as a percentage of the intensity of the corresponding band in the control assay (“Relative intensity (%)”). “% inhibition” relates to the percentage of the PKC-α band that is inaccessible to the antibody.

PKC-β = biological target: T2, PKC-β (Homo sapiens, UniProt P05771); test: Competition of PRE with PKC-β antibody binding, Protocol B, IMR-32
T2 construct: PRE 2 and PRE 3 in IMR-32 Neuroblastoma Cells: Protocol A; endogenous in cells; host or cells: IMR-32 human neuroblastoma cells
Protocol: The ability of the peptides PRE 2 and PRE 3 (see Table 4) to interfere with the binding of a PKC-α-specific polyclonal antibody (Santa Cruz Biotechnology, Inc.) to PKC-α was determined using a modified version of the protocol outlined above in which the test peptide was added directly to the cell extract prior to electrophoresis at a concentration of either 5× or 15× the concentration of the protein applied to each well of the gel for the Western blots (20 μg).
Peptides PRE 2 and PRE 3 (see Table 4) were tested for their ability to interfere with the binding of a PKC-β-specific polyclonal antibody (Santa Cruz Biotechnology, Inc.) to PKC-β using the general protocol described in Example 3.

T2 sequence (P05771 whole entry): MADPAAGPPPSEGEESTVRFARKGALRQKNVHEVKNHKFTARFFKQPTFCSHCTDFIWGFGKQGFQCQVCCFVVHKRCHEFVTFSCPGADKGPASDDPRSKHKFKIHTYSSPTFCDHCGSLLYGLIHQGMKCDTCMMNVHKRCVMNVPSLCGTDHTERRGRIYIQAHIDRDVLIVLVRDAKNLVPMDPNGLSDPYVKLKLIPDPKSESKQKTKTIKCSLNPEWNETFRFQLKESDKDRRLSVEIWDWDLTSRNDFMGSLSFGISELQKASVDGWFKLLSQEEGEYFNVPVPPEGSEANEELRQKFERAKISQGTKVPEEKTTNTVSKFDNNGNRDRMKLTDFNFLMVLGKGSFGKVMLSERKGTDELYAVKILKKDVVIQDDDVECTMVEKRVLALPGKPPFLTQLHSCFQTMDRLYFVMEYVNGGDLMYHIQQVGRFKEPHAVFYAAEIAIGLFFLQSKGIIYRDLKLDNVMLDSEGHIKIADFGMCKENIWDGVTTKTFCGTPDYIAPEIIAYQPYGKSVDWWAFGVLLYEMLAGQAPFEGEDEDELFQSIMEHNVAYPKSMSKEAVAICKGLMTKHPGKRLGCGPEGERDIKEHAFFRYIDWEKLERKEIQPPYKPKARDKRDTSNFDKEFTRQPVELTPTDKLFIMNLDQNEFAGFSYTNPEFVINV

Structure (SMILES): CC[C@H](C)[C@H](NC(=O)[C@H](CO)NC(=O)[C@@H](NC(=O)CNC(=O)[C@@H](NC(=O)[C@H](CC(C)C)NC(=O)[C@H](CC(N)=O)NC(=O)[C@H](CCC(N)=O)NC(=O)[C@H](C)NC(=O)[C@H](CC(=O)O)NC(=O)[C@H](CCCCN)NC(=O)CNC(=O)CNC(=O)CNC(=O)CNC(=O)CNC(=O)CNC(=O)CNC(=O)[C@H](CC(C)C)NC(=O)[C@H](CCCNC(=N)N)NC(=O)[C@H](Cc1ccccc1)NC(=O)[C@H](CCCCNC(=O)CN(CCN)C(=O)Cn1cnc2c(N)ncnc21)NC(=O)[C@H](CCCNC(=N)N)NC(=O)[C@H](CCCNC(=N)N)NC(=O)[C@H](Cc1ccccc1)NC(C)=O)[C@@H](C)CC)[C@@H](C)CC)C(N)=O [TIM 10] (Ac-FRRK(PNA(A))FRLGGGGGGGKDAQNLIGISI-NH2)
- effect on normal lung cells relative to H661 [1]: less affected
- apoptosis of peripheral blood lymphocytes [2]: do not induce apoptosis
- blastogenic response to mitogens [2]: do not drastically limit the blastogenic response
- no observed adverse effect level ([3]; IV study): 250 μg per mouse
- toxic effects ([3]; topically or orally): No toxic effects were observed at any dose
- inhibition in cell growth (MDA MB231 cells): 25%
- % decrease PKC-α band intensity relative to control (PKC alpha; Calu-3): 21.8%
- % decrease PKC-α band intensity relative to control (PKC alpha; Calu-6): 57.8%
- % decrease PKC-α band intensity relative to control (PKC alpha; Capan-2): 53.4%
- % decrease PKC-α band intensity relative to control (PKC alpha; H661): 28.1%
- % decrease PKC-α band intensity relative to control (PKC alpha; MCF-7): 12.0%
- % decrease PKC-α band intensity relative to control (PKC alpha; MDA-MB231): 36.6%
- % decrease PKC-α band intensity relative to control (PKC alpha; SK-OV-3): 63.4%
- % decrease PKC-α band intensity relative to control (PKC alpha; T24): 42.5%

Structure (SMILES): CC[C@H](C)[C@H](NC(=O)[C@H](CO)NC(=O)[C@@H](NC(=O)CNC(=O)[C@@H](NC(=O)[C@H](CC(C)C)NC(=O)[C@H](CC(N)=O)NC(=O)[C@H](CCC(N)=O)NC(=O)[C@H](C)NC(=O)[C@H](CC(=O)O)NC(=O)CNC(=O)CNC(=O)[C@H](CCCCN)NC(=O)[C@@H](NC(=O)[C@H](CCC(=O)O)NC(=O)[C@H](CCC(N)=O)NC(=O)[C@@H](NC(=O)CNC(=O)[C@H](CCCCN)NC(=O)[C@H](C)NC(C)=O)[C@@H](C)CC)C(C)C)[C@@H](C)CC)[C@@H](C)CC)C(N)=O [PRE 3] (Ac-AKGIQEVKGGDAQNLIGISI-NH2)
- Band Intensity (PKC-α; 75 μg): 0.909
- Band Intensity (PKC-α; 300 μg): 0.888
- Band Intensity (PKC-α; 600 μg): 0.889
- Band Intensity (PKC-α; 3.75 mg): 0.603
- Band Intensity (PKC-α; 5.25 mg): 0.599
- Band Intensity (PKC-α; 7.5 mg): 0.589
- Band Intensity (PKC-β; 100 μg): 0.0
- Relative Intensity (%) (PKC-β; 100 μg): 0.0%
- Band Intensity (PKC-β; 200 μg): 0.0
- Band Intensity (PKC-β; 300 μg): 0.0
- Relative Intensity (%) (PKC-β; 300 μg): 0.0%
